Measured values taken from ChEMBL document CHEMBL1133958, “Derivatives of (2R,3R,4S)-2-aminomethylpyrrolidine-3,4-diol are selective alpha-mannosidase inhibitors” (Bioorg Med Chem Lett, 2001).
The source made the active and inactive calls. The rule behind the calls is not given here.

Legend:
[1] = target: T1, Glucoamylase 1 (Rhizopus oryzae) (UniProt P07683); assay: Percentage inhibition of Alpha-glucosidase from Rhizopus mold (amyloglucosidase) at 1 mM concentration; details: Rhizopus arrhizus
T1 sequence (whole entry): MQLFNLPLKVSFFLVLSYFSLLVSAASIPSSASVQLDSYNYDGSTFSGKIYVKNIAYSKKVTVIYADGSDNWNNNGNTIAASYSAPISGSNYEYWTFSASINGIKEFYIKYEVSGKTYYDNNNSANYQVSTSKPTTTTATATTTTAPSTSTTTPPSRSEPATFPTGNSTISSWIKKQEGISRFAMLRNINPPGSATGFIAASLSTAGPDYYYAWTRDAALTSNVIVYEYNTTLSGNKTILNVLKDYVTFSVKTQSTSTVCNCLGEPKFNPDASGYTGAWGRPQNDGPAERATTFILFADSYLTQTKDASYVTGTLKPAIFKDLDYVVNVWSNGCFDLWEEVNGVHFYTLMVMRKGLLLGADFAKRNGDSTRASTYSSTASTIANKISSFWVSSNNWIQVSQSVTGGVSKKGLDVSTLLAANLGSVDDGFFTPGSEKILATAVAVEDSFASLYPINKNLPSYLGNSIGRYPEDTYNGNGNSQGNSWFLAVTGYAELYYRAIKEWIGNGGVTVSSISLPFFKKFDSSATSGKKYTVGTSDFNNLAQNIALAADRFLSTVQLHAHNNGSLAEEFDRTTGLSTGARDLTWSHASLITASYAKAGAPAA

[2] = target: T2, Alpha-glucosidase (Oryza sativa Japonica Group) (UniProt Q9LGC6); assay: Percentage inhibition of Alpha-glucosidase from Rice (maltase) at 1 mM; […]
T2 sequence (whole entry): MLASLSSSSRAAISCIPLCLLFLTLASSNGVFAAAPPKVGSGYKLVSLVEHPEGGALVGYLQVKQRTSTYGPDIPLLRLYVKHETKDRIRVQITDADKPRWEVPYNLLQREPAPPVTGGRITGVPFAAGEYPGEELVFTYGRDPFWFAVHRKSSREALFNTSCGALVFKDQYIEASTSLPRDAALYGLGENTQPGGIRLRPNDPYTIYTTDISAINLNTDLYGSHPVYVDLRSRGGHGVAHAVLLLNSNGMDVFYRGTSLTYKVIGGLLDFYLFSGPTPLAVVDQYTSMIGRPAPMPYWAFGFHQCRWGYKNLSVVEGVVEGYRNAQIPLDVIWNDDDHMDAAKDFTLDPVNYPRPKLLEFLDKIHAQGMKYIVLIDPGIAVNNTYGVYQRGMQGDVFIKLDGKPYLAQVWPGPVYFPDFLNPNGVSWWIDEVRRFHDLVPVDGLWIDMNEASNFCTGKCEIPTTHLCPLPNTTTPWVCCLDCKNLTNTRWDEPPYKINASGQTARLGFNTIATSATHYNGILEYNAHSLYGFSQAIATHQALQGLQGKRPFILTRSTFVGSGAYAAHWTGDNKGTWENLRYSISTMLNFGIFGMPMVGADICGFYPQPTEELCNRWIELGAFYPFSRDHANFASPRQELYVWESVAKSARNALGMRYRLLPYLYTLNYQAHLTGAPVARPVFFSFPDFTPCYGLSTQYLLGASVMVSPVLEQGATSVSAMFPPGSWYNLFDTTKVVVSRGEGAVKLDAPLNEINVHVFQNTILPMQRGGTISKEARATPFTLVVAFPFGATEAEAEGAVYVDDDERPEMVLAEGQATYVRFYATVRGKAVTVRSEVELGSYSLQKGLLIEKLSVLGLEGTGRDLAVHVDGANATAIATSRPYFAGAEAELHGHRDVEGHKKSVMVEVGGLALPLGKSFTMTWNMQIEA

[3] = target: Beta-galactosidase (Escherichia coli K-12) (UniProt P00722); assay: Percentage inhibition of Beta-galactosidase from Escherichia coli at 1 mM concentration
Sequence of Beta-galactosidase (Escherichia coli K-12) (P00722 whole entry): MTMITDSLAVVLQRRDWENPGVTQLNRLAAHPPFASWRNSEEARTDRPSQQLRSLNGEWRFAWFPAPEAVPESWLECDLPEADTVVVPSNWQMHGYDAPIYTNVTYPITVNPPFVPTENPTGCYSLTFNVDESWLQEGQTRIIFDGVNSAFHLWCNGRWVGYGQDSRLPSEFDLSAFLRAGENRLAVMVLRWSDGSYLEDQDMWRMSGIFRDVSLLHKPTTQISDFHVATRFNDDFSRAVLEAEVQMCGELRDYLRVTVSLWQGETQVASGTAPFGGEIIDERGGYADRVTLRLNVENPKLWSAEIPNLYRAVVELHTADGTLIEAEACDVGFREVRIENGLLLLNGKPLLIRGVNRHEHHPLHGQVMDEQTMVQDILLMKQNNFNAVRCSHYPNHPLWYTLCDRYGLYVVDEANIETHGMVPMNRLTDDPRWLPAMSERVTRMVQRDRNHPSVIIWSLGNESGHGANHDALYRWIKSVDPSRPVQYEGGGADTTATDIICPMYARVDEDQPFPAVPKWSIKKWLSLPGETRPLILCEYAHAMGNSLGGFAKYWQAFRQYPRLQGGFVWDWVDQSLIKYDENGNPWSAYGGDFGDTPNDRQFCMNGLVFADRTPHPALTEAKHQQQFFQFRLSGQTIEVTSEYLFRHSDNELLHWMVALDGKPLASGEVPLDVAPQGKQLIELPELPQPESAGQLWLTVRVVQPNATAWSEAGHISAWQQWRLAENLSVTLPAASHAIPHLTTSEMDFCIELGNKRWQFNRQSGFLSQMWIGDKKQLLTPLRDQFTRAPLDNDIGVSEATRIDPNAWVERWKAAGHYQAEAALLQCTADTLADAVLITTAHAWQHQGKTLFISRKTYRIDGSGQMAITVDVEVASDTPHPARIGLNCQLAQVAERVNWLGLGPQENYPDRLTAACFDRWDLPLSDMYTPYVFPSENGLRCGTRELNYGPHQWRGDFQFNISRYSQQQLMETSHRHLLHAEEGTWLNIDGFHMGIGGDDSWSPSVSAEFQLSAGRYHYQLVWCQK

Saccharomyces cerevisiae [4] = assay: Percentage inhibition of Alpha-glucosidase from Yeast (maltase) at 1 mM; […]
[5] = target: Beta-glucosidase A (Caldicellulosiruptor saccharolyticus) (UniProt P10482); assay: Percentage inhibition of Beta-Glucosidase from Caldocellum saccharol. at 1 mM
Sequence of Beta-glucosidase A (Caldicellulosiruptor saccharolyticus) (P10482 whole entry): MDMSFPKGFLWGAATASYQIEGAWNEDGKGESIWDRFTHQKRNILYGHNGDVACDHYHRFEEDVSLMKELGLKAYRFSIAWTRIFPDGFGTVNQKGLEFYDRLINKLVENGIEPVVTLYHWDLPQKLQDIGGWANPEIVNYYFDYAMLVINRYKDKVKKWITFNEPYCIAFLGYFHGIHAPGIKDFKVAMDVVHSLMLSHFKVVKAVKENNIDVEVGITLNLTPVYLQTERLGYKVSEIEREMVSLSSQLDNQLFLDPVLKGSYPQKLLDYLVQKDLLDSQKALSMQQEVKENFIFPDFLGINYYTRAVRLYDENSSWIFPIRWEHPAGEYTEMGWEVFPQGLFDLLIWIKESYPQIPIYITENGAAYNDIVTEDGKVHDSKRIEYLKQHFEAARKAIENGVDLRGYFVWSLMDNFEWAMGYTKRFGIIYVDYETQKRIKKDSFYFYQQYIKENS

[6] = target: T3, Beta-galactosidase (Bos taurus) (UniProt Q58D55); assay: Percentage inhibition of Beta-galactosidase from Bovine liver at 1 mM concentration
T3 sequence (whole entry): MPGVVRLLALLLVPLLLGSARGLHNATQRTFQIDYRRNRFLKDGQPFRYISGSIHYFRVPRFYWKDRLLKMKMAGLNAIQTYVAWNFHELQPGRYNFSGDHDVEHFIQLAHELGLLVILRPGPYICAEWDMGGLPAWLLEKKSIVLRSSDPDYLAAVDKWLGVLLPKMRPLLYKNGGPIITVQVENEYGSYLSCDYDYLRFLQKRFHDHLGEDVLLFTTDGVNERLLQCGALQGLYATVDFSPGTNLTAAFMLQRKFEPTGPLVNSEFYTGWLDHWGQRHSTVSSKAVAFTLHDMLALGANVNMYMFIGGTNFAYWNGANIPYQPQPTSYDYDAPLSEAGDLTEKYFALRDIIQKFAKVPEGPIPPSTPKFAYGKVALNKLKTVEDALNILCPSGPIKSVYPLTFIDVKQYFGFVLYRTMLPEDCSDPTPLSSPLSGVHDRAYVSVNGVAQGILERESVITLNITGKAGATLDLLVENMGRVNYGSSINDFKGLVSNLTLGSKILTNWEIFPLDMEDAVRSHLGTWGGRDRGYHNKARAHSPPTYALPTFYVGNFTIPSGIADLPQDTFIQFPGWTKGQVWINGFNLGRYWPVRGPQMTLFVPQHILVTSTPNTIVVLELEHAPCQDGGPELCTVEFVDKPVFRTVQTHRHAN

Saccharomyces cerevisiae [7] = assay: Percentage inhibition of Alpha-glucosidase from Baker yeast (isomaltase) at 1 mM
[8] = target: Glucoamylase (Aspergillus niger) (UniProt P69328); assay: Percentage inhibition of Alpha-glucosidase from Aspergillus niger (amyloglucosidase) at 1 mM
Sequence of Glucoamylase (Aspergillus niger) (P69328 whole entry): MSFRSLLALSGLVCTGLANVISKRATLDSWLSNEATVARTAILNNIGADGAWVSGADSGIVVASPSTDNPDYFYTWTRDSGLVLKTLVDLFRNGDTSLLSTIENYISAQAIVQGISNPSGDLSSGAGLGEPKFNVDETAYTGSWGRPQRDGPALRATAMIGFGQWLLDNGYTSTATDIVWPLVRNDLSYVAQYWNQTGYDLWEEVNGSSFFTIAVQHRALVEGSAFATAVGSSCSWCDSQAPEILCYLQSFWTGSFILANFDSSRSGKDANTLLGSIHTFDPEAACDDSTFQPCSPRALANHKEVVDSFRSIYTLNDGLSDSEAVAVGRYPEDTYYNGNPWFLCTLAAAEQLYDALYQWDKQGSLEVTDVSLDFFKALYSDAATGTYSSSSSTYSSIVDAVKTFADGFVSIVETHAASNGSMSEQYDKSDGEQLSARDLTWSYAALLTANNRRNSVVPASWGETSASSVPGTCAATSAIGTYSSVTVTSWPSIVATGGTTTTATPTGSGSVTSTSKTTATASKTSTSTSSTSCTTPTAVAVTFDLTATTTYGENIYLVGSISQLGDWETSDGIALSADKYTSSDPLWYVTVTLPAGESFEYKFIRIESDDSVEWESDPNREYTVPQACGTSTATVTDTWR

[9] = target: T4, Beta-galactosidase (Aspergillus niger) (UniProt P29853); assay: Percentage inhibition of Beta-galactosidase from Aspergillus niger at 1 mM concentration
T4 sequence (whole entry): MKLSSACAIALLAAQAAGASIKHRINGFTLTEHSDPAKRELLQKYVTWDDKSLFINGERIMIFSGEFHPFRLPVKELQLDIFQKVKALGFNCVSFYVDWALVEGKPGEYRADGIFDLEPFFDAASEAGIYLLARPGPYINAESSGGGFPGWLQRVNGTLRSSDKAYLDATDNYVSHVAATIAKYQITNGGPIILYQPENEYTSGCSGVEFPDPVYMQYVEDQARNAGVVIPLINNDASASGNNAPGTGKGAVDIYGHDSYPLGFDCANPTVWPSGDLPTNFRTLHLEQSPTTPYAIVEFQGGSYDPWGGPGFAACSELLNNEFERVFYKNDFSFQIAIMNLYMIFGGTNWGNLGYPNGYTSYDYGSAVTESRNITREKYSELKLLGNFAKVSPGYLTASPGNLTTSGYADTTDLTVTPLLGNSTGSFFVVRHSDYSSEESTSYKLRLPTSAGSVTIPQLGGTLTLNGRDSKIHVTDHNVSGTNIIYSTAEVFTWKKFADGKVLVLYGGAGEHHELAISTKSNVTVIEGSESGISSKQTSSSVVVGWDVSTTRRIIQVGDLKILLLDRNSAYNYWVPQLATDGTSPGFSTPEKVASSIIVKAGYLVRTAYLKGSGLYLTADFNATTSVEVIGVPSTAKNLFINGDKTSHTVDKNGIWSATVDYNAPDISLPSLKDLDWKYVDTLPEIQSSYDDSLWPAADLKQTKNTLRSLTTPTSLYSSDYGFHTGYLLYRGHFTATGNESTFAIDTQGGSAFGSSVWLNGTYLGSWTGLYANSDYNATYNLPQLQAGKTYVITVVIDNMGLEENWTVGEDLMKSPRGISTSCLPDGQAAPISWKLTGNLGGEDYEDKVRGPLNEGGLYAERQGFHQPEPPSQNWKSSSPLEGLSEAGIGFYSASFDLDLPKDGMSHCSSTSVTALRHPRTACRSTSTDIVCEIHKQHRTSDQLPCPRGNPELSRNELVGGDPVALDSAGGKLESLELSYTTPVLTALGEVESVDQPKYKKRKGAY

Beta-galactosidase [10] = target: T5, Beta-galactosidase (Aspergillus niger, UniProt P29853); assay: Inhibitory activity towards Beta-galactosidase from Aspergillus niger
T5 sequence (P29853 whole entry): T4 sequence (whole entry)

[11] = Inhibitory activity towards Beta-galactosidase from Aspergillus oryzae
[12] = Percentage inhibition of Beta-galactosidase from Aspergillus oryzae at 1 mM
[13] = tested on: Alpha-mannosidase (Prunus dulcis); assay: Percentage inhibition of Alpha-mannosidase from Almond at 1 mM
[14] = target: Glucoamylase (Aspergillus niger) (UniProt P69328); assay: Percentage inhibition of Alpha-glucosidase from Aspergillus niger (amyloglucosidase) at 1 mM; No inhibition
[15] = Percentage inhibition of Beta-galactosidase from Jack bean at 1 mM concentration; details: Canavalia ensiformis
[16] = target: T2, Alpha-glucosidase (Oryza sativa Japonica Group); assay: Percentage inhibition of Alpha-glucosidase from Rice (maltase) at 1 mM
Saccharomyces cerevisiae [17] = assay: Percentage inhibition of Alpha-glucosidase from Yeast (maltase) at 1 mM
[18] = target: T3, Beta-galactosidase (Bos taurus); assay: Percentage inhibition of Beta-galactosidase from Bovine liver at 1 mM; No inhibition
[19] = target: T1, Glucoamylase 1 (Rhizopus oryzae); assay: Percentage inhibition of Alpha-glucosidase from Rhizopus mold (amyloglucosidase) at 1 mM concentration; No inhibition; details: Rhizopus arrhizus
[20] = Percentage inhibition of Beta-galactosidase from Aspergillus oryzae at 1 mM; No inhibition
Beta-galactosidase [21] = target: T6, Beta-galactosidase (Bos taurus, UniProt Q58D55); assay: Inhibitory activity towards Beta-galactosidase from Bovine liver
T6 sequence (Q58D55 whole entry): T3 sequence (whole entry)

Beta-glucosidase A = Beta-glucosidase A (Caldicellulosiruptor saccharolyticus, UniProt P10482); assay: Inhibitory activity towards Beta-Glucosidase from Caldocellum saccharol.
Sequence of Beta-glucosidase A (P10482 whole entry): as the sequence (P10482 whole entry) above

[22] = target: Beta-glucosidase A (Caldicellulosiruptor saccharolyticus) (UniProt P10482); assay: Percentage inhibition of Beta-Glucosidase from Caldocellum saccharol. at 1 mM; No inhibition

Compound | inhibition [1] | inhibition [2] | inhibition [3] | inhibition (Saccharomyces cerevisiae [4]) | inhibition [5] | inhibition [6] | inhibition (Saccharomyces cerevisiae [7]) | inhibition [8] | inhibition [9] | IC50 [11] | inhibition [12] | inhibition [13] | inhibition [14] | inhibition (Saccharomyces cerevisiae [17]) | inhibition [19] | further results
OC(O)CC1NCC(O)C1O (stereo not given) | 40% | inactive | 48% | inactive | 90% | 32% | 28% | 21% | 91% | 75 µM | 80% |  |  |  |  | IC50 (Beta-galactosidase [10]): 140 µM; Ki (Beta-galactosidase [10]): 200 µM; Ki [11]: 75 µM
NCC1NCC(O)C1O (stereo not given) |  |  | 92% |  | 93% |  |  |  | 24% |  | 60% | 51% | inactive | 84% | inactive | inhibition [15]: 76%; inhibition [16]: 98%; inhibition [18]: inactive
CC(NCC1NCC(O)C1O)C(O)(c1ccccc1)c1ccccc1 (stereo not given) |  | inactive | 25% |  | 72% | 84% | 46% |  | 29% |  |  | 48% | inactive | 28% | inactive | inhibition [20]: inactive; IC50 (Beta-galactosidase [21]): 140 µM; Ki (Beta-galactosidase [21]): 21 µM; IC50 (Beta-glucosidase A): 320 µM
O[C@@H]1CNC[C@@H]1O | 47% | inactive | 41% | inactive |  | 25% | 32% | 24% | 39% | 790 µM | 53% |  |  |  |  | inhibition [22]: inactive
